Test results from patent publication US11498899B2, “Nitrone herbicides” (FMC Corporation, priority 2016, dated 2022).

Key:
[1] = test system: ducksalad (Heteranthera limosa); assay: Test B flooded paddy test, visual rating 0-100; conditions: Flood, 250 g ai/ha, applied to paddy water, rated after 13 to 15 days
[2] = test system: ragweed (common ragweed, Ambrosia elatior); assay: Test A preemergence, visual injury rating 0-100; type: in vivo
[3] = test system: pigweed (Amaranthus retroflexus); assay: Test A preemergence, visual injury rating 0-100; type: in vivo
[4] = test system: ryegrass, Italian (Italian ryegrass, Lolium multiflorum); assay: Test A preemergence, visual injury rating 0-100; type: in vivo
kochia (Kochia scoparia) [5] = assay: Test A preemergence, visual injury rating 0-100; type: in vivo
[6] = test system: foxtail, giant (giant foxtail, Setaria faberii); assay: Test A preemergence, visual injury rating 0-100; type: in vivo
[7] = test system: barnyardgrass (Echinochloa crus-galli); assay: Test A preemergence, visual injury rating 0-100 (0 no effect, 100 complete control); type: in vivo
[8] = test system: wheat (Triticum aestivum); assay: Test A postemergence, visual injury rating 0-100; type: in vivo; conditions: 0 to 100 scale
corn (Zea mays) = assay: Test A postemergence, visual injury rating 0-100; type: in vivo; conditions: 0 to 100 scale
[9] = test system: blackgrass (Alopecurus myosuroides); assay: Test A postemergence, visual injury rating 0-100; type: in vivo; conditions: 0 to 100 scale
[10] = test system: ragweed (common ragweed, Ambrosia elatior); assay: Test A postemergence, visual injury rating 0-100; type: in vivo; conditions: 0 to 100 scale
[11] = test system: barnyardgrass (Echinochloa crus-galli); assay: Test A postemergence, visual injury rating 0-100; type: in vivo; conditions: 0 to 100 scale
[12] = test system: pigweed (Amaranthus retroflexus); assay: Test A postemergence, visual injury rating 0-100; type: in vivo; conditions: 0 to 100 scale
[13] = test system: galium (catchweed bedstraw, Galium aparine); assay: Test A postemergence, visual injury rating 0-100; type: in vivo; conditions: 0 to 100 scale
[14] = test system: ryegrass, Italian (Italian ryegrass, Lolium multiflorum); assay: Test A postemergence, visual injury rating 0-100; type: in vivo; conditions: 0 to 100 scale
kochia (Kochia scoparia) [15] = assay: Test A postemergence, visual injury rating 0-100; type: in vivo; conditions: 0 to 100 scale
[16] = test system: foxtail, giant (giant foxtail, Setaria faberii); assay: Test A postemergence, visual injury rating 0-100; type: in vivo; conditions: 0 to 100 scale
[17] = test system: barnyardgrass (Echinochloa crus-galli); assay: Test B flooded paddy test, visual rating 0-100; conditions: Flood, 250 g ai/ha, applied to paddy water, rated after 13 to 15 days
rice (Oryza sativa) = assay: Test B flooded paddy test, visual rating 0-100 (0 no effect, 100 complete control); conditions: Flood, 250 g ai/ha, applied to paddy water, rated after 13 to 15 days
[18] = 125 g ai/ha, 0 to 100 scale (0 no effect, 100 complete control), approx. 10 days

Row | Structure (SMILES) | Ducksalad plant response rating (0 to 100 scale) [1] | Wheat plant response rating ([8]; 125 g ai/ha) | Wheat plant response rating ([8]; 500 g ai/ha) | Corn plant response rating (corn (Zea mays); 125 g ai/ha) | Corn plant response rating (corn (Zea mays); 500 g ai/ha) | Blackgrass plant response rating ([9]; 125 g ai/ha) | Blackgrass plant response rating ([9]; 500 g ai/ha) | Ragweed plant response rating ([10]; 125 g ai/ha) | Ragweed plant response rating ([10]; 500 g ai/ha) | Barnyardgrass plant response rating ([11]; 125 g ai/ha) | Barnyardgrass plant response rating ([11]; 500 g ai/ha) | Pigweed plant response rating ([12]; 125 g ai/ha) | Pigweed plant response rating ([12]; 500 g ai/ha) | Galium plant response rating ([13]; 125 g ai/ha) | Galium plant response rating ([13]; 500 g ai/ha) | Ryegrass, Italian plant response rating ([14]; 125 g ai/ha) | Ryegrass, Italian plant response rating ([14]; 500 g ai/ha) | Kochia plant response rating (kochia (Kochia scoparia) [15]; 125 g ai/ha) | Kochia plant response rating (kochia (Kochia scoparia) [15]; 500 g ai/ha) | Foxtail, Giant plant response rating ([16]; 125 g ai/ha) | further results
1 | CCC1=[N+]([O-])C(C(=O)Nc2cccc(F)c2F)C(c2ccc(C(F)(F)F)cc2)C1 (racemic) [Compound 120] | 70 | 0 | 0 | 0 | 0 | 0 | 20 | 0 | 40 | 20 | 70 | 10 | 20 | 20 | 50 | 0 | 0 | 0 | 30 | 0 | Ragweed plant response rating (0 to 100 scale) ([2]; 500 g ai/ha): 80; Pigweed plant response rating [3, 18]: 30; Pigweed plant response rating (0 to 100 scale) ([3]; 500 g ai/ha): 60; Ryegrass, Italian plant response rating [4, 18]: 0; Ryegrass, Italian plant response rating (0 to 100 scale) ([4]; 500 g ai/ha): 70; Kochia plant response rating (kochia (Kochia scoparia) [5]; [18]): 0; Kochia plant response rating (0 to 100 scale) (kochia (Kochia scoparia) [5]; 500 g ai/ha): 70; Foxtail, Giant plant response rating [6, 18]: 70; Foxtail, Giant plant response rating (0 to 100 scale) ([6]; 500 g ai/ha): 90; Barnyardgrass plant response rating [7, 18]: 80; Barnyardgrass plant response rating (0 to 100 scale) ([7]; 500 g ai/ha): 90; Foxtail, Giant plant response rating ([16]; 500 g ai/ha): 80; Barnyardgrass plant response rating (0 to 100 scale) [17]: 15; Rice plant response rating (0 to 100 scale) (rice (Oryza sativa)): 0
2 | CC(C)C1=[N+]([O-])C(C(=O)Nc2cccc(F)c2F)C(c2ccc(C(F)(F)F)cc2)C1 (racemic) [Compound 122] | 0 | 0 | 0 | 0 | 0 | 0 | 0 | 0 | 0 | 0 | 0 | 0 | 0 | 0 | 0 | 0 | 0 | 0 | 0 | 0 | Ragweed plant response rating [2, 18]: 0; Ragweed plant response rating (0 to 100 scale) ([2]; 500 g ai/ha): 0; Pigweed plant response rating [3, 18]: 0; Pigweed plant response rating (0 to 100 scale) ([3]; 500 g ai/ha): 0; Ryegrass, Italian plant response rating [4, 18]: 0; Ryegrass, Italian plant response rating (0 to 100 scale) ([4]; 500 g ai/ha): 0; Kochia plant response rating (kochia (Kochia scoparia) [5]; [18]): 0; Kochia plant response rating (0 to 100 scale) (kochia (Kochia scoparia) [5]; 500 g ai/ha): 0; Foxtail, Giant plant response rating [6, 18]: 0; Foxtail, Giant plant response rating (0 to 100 scale) ([6]; 500 g ai/ha): 0; Barnyardgrass plant response rating [7, 18]: 0; Barnyardgrass plant response rating (0 to 100 scale) ([7]; 500 g ai/ha): 0; Foxtail, Giant plant response rating ([16]; 500 g ai/ha): 0; Barnyardgrass plant response rating (0 to 100 scale) [17]: 0; Rice plant response rating (0 to 100 scale) (rice (Oryza sativa)): 0
3 | CC1=[N+]([O-])[C@@H](C(=O)Nc2cccc(F)c2F)[C@H](c2ccc(C(F)(F)F)cc2)C1 (relative stereo) [Compound 2, trans-N-(2,3-difluorophenyl)-3,4-dihydro-5-methyl-3-[4-(trifluoromethyl)phenyl]-2H-pyrrole-2-carboxamide 1-oxide] | 90 | 40 | 70 | 40 | 80 | 20 | 90 | 30 | 60 | 70 | 90 | 40 | 80 | 70 | 70 | 60 | 70 | 40 | 80 | 90 | Ragweed plant response rating (0 to 100 scale) ([2]; 125 g ai/ha): 40; Ragweed plant response rating ([2]; 500 g ai/ha, 0 to 100 scale): 90; Pigweed plant response rating (0 to 100 scale) ([3]; 125 g ai/ha): 90; Pigweed plant response rating ([3]; 500 g ai/ha, 0 to 100 scale): 90; Ryegrass, Italian plant response rating (0 to 100 scale) ([4]; 125 g ai/ha): 30; Ryegrass, Italian plant response rating ([4]; 500 g ai/ha, 0 to 100 scale): 50; Kochia plant response rating (0 to 100 scale) (kochia (Kochia scoparia) [5]; 125 g ai/ha): 90; Kochia plant response rating (kochia (Kochia scoparia) [5]; 500 g ai/ha, 0 to 100 scale): 80; Foxtail, Giant plant response rating (0 to 100 scale) ([6]; 125 g ai/ha): 100; Foxtail, Giant plant response rating ([6]; 500 g ai/ha, 0 to 100 scale): 100; Barnyardgrass plant response rating (0 to 100 scale) ([7]; 125 g ai/ha): 90; Barnyardgrass plant response rating ([7]; 500 g ai/ha, 0 to 100 scale): 100; Foxtail, Giant plant response rating ([16]; 500 g ai/ha): 90; Barnyardgrass plant response rating (0 to 100 scale) [17]: 70; Rice plant response rating (0 to 100 scale) (rice (Oryza sativa)): 0
4 | CC1=[N+]([O-])[C@@H](C(=O)Nc2cccc(F)c2F)[C@H](c2ccc(Cl)cc2)C1 (relative stereo) [Compound 5, trans-3-(4-chlorophenyl)-N-(2,3-difluorophenyl)-3,4-dihydro-5-methyl-2H-pyrrole-2-carboxamide 1-oxide] | 100 | 20 | 80 | 0 | 50 | 20 | 50 | 30 | 70 | 90 | 90 | 40 | 70 | 50 | 80 | 0 | 30 | 60 | 70 | 60 | Ragweed plant response rating (0 to 100 scale) ([2]; 125 g ai/ha): 50; Ragweed plant response rating ([2]; 500 g ai/ha, 0 to 100 scale): 90; Pigweed plant response rating (0 to 100 scale) ([3]; 125 g ai/ha): 50; Pigweed plant response rating ([3]; 500 g ai/ha, 0 to 100 scale): 90; Ryegrass, Italian plant response rating (0 to 100 scale) ([4]; 125 g ai/ha): 10; Ryegrass, Italian plant response rating ([4]; 500 g ai/ha, 0 to 100 scale): 80; Kochia plant response rating (0 to 100 scale) (kochia (Kochia scoparia) [5]; 125 g ai/ha): 10; Kochia plant response rating (kochia (Kochia scoparia) [5]; 500 g ai/ha, 0 to 100 scale): 60; Foxtail, Giant plant response rating (0 to 100 scale) ([6]; 125 g ai/ha): 100; Foxtail, Giant plant response rating ([6]; 500 g ai/ha, 0 to 100 scale): 100; Barnyardgrass plant response rating (0 to 100 scale) ([7]; 125 g ai/ha): 100; Barnyardgrass plant response rating ([7]; 500 g ai/ha, 0 to 100 scale): 100; Foxtail, Giant plant response rating ([16]; 500 g ai/ha): 70; Barnyardgrass plant response rating (0 to 100 scale) [17]: 65; Rice plant response rating (0 to 100 scale) (rice (Oryza sativa)): 0
